{
  "source": "patent US12648997B2",
  "about": "“Treatment of infections” (priority 2018, dated 2026)",
  "key": {"[1]": {"experiment": "Stability of daptomycin in transient daptomycin-linker hydrogel conjugates versus free daptomycin", "type": "physicochemical", "conditions": "pH 7.4, 37° C, at day seven; peak area ratio at 215 nm", "experimental": "The relative stability of the covalently bound daptomycin in the transient daptomycin-linker hydrogel conjugates towards hydrolytic and other degradation pathways in comparison to free daptomycin was investigated. For that purpose, free daptomycin, transient daptomycin-linker HA-conjugate 5 and transient daptomycin-linker PEG-conjugate 9b were incubated at pH 7.4 and 37° C. The supernatants of the carrier samples were exchanged five times within a week and the daptomycin purity in these samples was analyzed by UPLC. In parallel, analytical samples of the free daptomycin control solution were also analyzed by UPLC at the same incubation times. The purity of daptomycin in the samples was calculated as the ratio of the peak area of the intact daptomycin peak at 215 nm relative to the area sum of all daptomycin-related peaks identified at 215 nm."}, "[2]": {"system": "Methicillin-sensitive Staphylococcus aureus (MSSA) MN8 strain biofilms", "experiment": "In vitro biofilm eradication study (Calgary Biofilm Device)", "type": "cell-based", "conditions": "TSB with 12 mg/mL BSA and 50 μg/mL calcium, 37° C, OD600", "protocol": "This study was performed to investigate the daptomycin concentration required to fully eradicate biofilms when constantly exposed to daptomycin for one or three days. […] Biofilms were grown in tryptic soy broth (TSB) using a Methicillin-sensitive Staphylococcus aureus (MSSA) MN8 strain. Aliquots of a diluted culture of this bacterial strain in TSB, obtained from an inoculum of the respective strain on trypticase soy agar plates (TSA), were transferred to all but the negative control wells of flat-bottom 96-well microtiter plates. The bacterial biofilms were formed by immersing lids with pegs into the 96-well microtiter plates, followed by incubation for 24, 48 and 72 hours at 37° C. The differently aged biofilms were subsequently transferred into new microtiter plates using TSB media with addition of 12 mg/mL bovine serum albumin (BSA) and 50 μg/mL calcium as CaCl2. Daptomycin was added to the media as required to obtain concentrations of 2-1458 μg/mL. The plates were incubated for one or three days at 37° C. The biofilms were detached from the pegs by centrifugation, generating bacterial suspensions in the wells of the microtiter plates. The optical densities of these suspensions were measured (OD600) to determine the biofilm eradication concentrations. All measurements were performed in triplicates."}},
  "data": [
    {"compound": "CCCCCCCCCC(=O)N[C@@H](Cc1c[nH]c2ccccc12)C(=O)N[C@H](CC(N)=O)C(=O)N[C@@H](CC(=O)O)C(=O)N[C@@H]1C(=O)NCC(=O)N[C@@H](CCCN)C(=O)N[C@@H](CC(=O)O)C(=O)N[C@H](C)C(=O)N[C@@H](CC(=O)O)C(=O)NCC(=O)N[C@H](CO)C(=O)N[C@@H]([C@H](C)CC(=O)O)C(=O)N[C@@H](CC(=O)c2ccccc2N)C(=O)O[C@@H]1C", "note": "[daptomycin]", "values": [
      {"measurement": "purity of the free daptomycin in the solution control sample", "setting": "[1]", "result": 72, "unit": "%"},
      {"measurement": "daptomycin concentration needed to fully eradicate biofilms", "setting": "[2]; 24 hours exposure, biofilms of all ages (24, 48, 72 h)", "result": 486, "unit": "µg/mL"},
      {"measurement": "daptomycin concentration needed to fully eradicate biofilms", "setting": "[2]; three days exposure", "result": 162, "unit": "µg/mL"}
    ]}
  ]
}
